The text below walks through data of patent US20070021434A1, “NON-NUCLEOSIDE ANTI-HEPACIVIRUS AGENTS AND USES THEREOF” (Migenix Inc., priority 2005, published 2007).

Broadly, the IC50 is the point on the concentration scale where inhibition reaches its midpoint. A low value points to greater potency.

A value given as a limit tells only on which side of the number the result lay.

For the test, the target named is HCV RdRp (NS5B) (UniProt P26663). The class given is biochemical, hepatitis C virus.
Chain of HCV RdRp (NS5B) (P26663 whole entry, looked up): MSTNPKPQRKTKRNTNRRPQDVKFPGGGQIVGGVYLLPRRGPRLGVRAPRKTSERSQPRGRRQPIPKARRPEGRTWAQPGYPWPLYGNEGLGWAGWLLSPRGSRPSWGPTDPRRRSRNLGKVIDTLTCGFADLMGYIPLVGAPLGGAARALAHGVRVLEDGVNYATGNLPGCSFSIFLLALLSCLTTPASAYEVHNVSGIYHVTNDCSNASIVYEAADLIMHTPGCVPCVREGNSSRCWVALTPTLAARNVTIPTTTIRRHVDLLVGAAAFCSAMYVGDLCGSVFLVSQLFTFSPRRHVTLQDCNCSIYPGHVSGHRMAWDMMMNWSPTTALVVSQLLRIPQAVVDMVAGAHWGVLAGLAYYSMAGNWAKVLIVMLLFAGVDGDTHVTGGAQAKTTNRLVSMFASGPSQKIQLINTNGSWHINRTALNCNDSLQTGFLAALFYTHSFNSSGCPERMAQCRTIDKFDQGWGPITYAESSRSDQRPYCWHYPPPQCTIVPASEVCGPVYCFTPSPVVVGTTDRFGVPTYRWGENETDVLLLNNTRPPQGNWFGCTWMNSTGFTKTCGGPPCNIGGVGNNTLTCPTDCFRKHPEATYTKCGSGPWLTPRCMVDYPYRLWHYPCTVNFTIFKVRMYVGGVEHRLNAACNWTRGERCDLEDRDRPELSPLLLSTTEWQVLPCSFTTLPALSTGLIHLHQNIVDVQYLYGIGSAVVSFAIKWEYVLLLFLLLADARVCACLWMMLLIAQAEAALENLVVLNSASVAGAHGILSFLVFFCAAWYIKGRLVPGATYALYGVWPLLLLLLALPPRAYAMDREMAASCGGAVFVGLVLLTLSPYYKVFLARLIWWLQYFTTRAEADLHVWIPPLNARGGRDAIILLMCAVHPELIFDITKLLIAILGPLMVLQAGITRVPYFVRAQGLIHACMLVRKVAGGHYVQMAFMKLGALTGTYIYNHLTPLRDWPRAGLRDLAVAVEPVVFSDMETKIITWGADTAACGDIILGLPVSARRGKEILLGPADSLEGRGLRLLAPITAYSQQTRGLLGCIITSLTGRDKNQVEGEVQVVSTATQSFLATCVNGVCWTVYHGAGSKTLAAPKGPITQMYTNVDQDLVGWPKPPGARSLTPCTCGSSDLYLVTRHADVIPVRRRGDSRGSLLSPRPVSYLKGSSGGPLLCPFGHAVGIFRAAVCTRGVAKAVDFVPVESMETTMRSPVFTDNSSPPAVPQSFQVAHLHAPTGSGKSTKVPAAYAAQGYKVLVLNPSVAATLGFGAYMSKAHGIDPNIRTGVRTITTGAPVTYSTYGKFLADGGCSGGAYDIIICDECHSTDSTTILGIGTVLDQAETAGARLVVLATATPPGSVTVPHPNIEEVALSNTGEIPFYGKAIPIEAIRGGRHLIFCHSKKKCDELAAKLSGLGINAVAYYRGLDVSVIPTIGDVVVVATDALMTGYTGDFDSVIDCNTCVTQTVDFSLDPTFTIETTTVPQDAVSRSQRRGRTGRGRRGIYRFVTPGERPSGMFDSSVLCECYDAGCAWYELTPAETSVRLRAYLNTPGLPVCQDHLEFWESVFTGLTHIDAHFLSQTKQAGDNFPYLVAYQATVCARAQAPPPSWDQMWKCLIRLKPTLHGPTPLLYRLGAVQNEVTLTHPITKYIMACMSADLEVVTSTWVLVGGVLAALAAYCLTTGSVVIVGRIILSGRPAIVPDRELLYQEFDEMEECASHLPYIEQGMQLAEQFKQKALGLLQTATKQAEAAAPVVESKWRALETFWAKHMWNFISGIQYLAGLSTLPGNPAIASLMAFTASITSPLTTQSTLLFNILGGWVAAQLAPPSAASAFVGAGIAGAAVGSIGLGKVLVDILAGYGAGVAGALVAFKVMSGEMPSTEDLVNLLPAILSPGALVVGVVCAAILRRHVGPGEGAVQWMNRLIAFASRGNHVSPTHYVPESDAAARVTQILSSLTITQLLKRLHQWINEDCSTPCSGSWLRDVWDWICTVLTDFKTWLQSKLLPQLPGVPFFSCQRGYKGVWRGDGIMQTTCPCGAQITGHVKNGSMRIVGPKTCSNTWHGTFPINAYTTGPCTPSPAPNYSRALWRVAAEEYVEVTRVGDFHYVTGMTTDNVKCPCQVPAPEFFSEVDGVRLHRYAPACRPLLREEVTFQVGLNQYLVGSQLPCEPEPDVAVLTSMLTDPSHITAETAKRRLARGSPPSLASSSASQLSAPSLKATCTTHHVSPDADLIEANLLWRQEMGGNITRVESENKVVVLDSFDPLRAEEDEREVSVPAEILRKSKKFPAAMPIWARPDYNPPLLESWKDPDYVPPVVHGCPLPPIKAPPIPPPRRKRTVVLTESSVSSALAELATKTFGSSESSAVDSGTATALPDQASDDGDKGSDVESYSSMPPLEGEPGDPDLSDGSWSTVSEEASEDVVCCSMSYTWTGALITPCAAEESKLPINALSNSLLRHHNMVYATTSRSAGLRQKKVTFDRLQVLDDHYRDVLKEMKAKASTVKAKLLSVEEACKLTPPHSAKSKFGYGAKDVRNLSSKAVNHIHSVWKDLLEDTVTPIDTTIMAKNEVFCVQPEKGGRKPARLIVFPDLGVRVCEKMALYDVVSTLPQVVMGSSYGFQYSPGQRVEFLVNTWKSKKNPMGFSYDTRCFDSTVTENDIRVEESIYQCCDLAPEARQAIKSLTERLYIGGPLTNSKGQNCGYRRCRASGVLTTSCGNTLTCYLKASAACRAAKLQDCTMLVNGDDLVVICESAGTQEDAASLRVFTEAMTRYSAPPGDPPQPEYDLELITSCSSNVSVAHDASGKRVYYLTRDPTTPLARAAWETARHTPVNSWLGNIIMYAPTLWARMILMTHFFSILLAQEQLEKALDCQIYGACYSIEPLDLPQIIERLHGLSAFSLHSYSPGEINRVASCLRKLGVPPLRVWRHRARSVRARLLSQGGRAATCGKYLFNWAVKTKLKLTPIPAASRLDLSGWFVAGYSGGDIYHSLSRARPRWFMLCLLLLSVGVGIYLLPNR
Regarding `Cc1ccc(NC(=O)C(CCCCN)NC(=O)NC(C)c2cccc3ccccc23)cc1` [Compound 96, (R,S)-6-AMINO-2-[3-(1-NAPHTHALEN-1-YL-ETHYL)-UREIDO]-HEXANOIC ACID P-TOLYLAMIDE], the IC50 was > 50 µM.
Then `Cc1ccc(NC(=O)C(CCCCN)NC(=O)NC(C)c2cccc3ccccc23)cc1` [Compound 97, (S,S)-6-AMINO-2-[3-(1-NAPHTHALEN-1-YL-ETHYL)-UREIDO]-HEXANOIC ACID P-TOLYLAMIDE], with > 50 µM; and `Cc1ccc(NC(=O)[C@H](CCCCN)NC(=O)Nc2cccc(Oc3ccccc3)c2)cc1` [Compound 98, (S)-6-AMINO-2-[3-(3-PHENOXY-PHENYL)-UREIDO]-HEXANOIC ACID P-TOLYLAMIDE], with > 50 µM; and `Cc1ccc(NC(=O)[C@H](CCCCN)NC(=O)NS(=O)(=O)c2ccccc2)cc1` [Compound 99, (S)-6-AMINO-2-[PHENYLSULFONAMIDE-UREIDO]-HEXANOIC ACID P-TOLYLAMIDE], with > 50 µM.
For `Cc1ccc(NC(=O)C(CCCCN)NC(=O)C(N)Cc2c[nH]c3ccccc23)cc1` [Compound 100, (S,S)-6-AMINO-2-[2-AMINO-3-(1H-INDOL-3-YL)-PROPIONYLAMINO]-HEXANOIC ACID P-TOLYLAMIDE] the value was > 50 µM; for `Cc1ccc(NC(=O)C(CCCN)NC(=O)OCC2c3ccccc3-c3ccccc32)cc1` [Compound 101, (S)-(4-AMINO-1-P-TOLYLCARBAMOYL-BUTYL)-CARBAMIC ACID 9H-FLUOREN-9-YLMETHYL ESTER], > 50 µM; for `Cc1ccc(NC(=O)C(CCCN)NC(=O)OCC2c3ccccc3-c3ccccc32)cc1` [Compound 102, (R)-(4-AMINO-1-P-TOLYLCARBAMOYL-BUTYL)-CARBAMIC ACID 9H-FLUOREN-9-YLMETHYL ESTER], > 50 µM.
Consider `Cc1ccc(NC(=O)C(CN)NC(=O)OCC2c3ccccc3-c3ccccc32)cc1` [Compound 103, (S)-(2-AMINO-1-P-TOLYLCARBAMOYL-ETHYL)-CARBAMIC ACID 9H-FLUOREN-9-YLMETHYL ESTER], for which the IC50 is > 50 µM.
For `Cc1ccc(NC(=O)C(CCCCCN)NC(=O)OCC2c3ccccc3-c3ccccc32)cc1` [Compound 104, (S)-(6-AMINO-1-P-TOLYLCARBAMOYL-HEXYL)-CARBAMIC ACID 9H-FLUOREN-9-YLMETHYL ESTER], the IC50 was < 10 µM.
Regarding `CC(C)(C)c1ccc(NC(=O)[C@H](CCCCN)NC(=O)OCC2c3ccccc3-c3ccccc32)cc1` [Compound 105, (S)-[5-AMINO-1-(4-TERT-BUTYL-PHENYLCARBAMOYL)-PENTYL]-CARBAMIC ACID 9H-FLUOREN-9-YLMETHYL ESTER], the IC50 is 10 to 50 µM.
For `CCN(CC)c1ccc(NC(=O)[C@H](CCCCN)NC(=O)OCC2c3ccccc3-c3ccccc32)cc1` [Compound 106, (S)-[5-AMINO-1-(4-DIETHYLAMINO-PHENYLCARBAMOYL)-PENTYL]-CARBAMIC ACID 9H-FLUOREN-9-YLMETHYL ESTER] the value was > 50 µM; for `NCCCC[C@H](NC(=O)OCC1c2ccccc2-c2ccccc21)C(=O)Nc1ccc(C2CCCCC2)cc1` [Compound 107, (S)-[5-AMINO-1-(4-CYCLOHEXYL-PHENYLCARBAMOYL)-PENTYL]-CARBAMIC ACID 9H-FLUOREN-9-YLMETHYL ESTER], < 10 µM; for `Cc1ccc(NC(=O)C(CCN)NC(=O)OCC2c3ccccc3-c3ccccc32)cc1` [Compound 108, (S)-(3-AMINO-1-P-TOLYLCARBAMOYL-PROPYL)-CARBAMIC ACID 9H-FLUOREN-9-YLMETHYL ESTER], > 50 µM.
Then `Cc1ccc(NC(=O)C2(NC(=O)OCC3c4ccccc4-c4ccccc43)CCCNC2)cc1` (stereo not drawn) [Compound 109, (3-P-TOLYLCARBAMOYL-PIPERIDIN-3-YL)-CARBAMIC ACID 9H-FLUOREN-9-YLMETHYL ESTER], with > 50 µM; and `Cc1ccc(NC(=O)C(CCCC[N+](C)(C)C)NC(=O)OCC2c3ccccc3-c3ccccc32)cc1` (stereo not drawn) [Compound 110], with > 50 µM.
Regarding `Cc1ccc(NC(=O)C(CCCNC(=N)N(C)C)NC(=O)OCC2c3ccccc3-c3ccccc32)cc1` [Compound 111, (S)-[4-(3,3-DIMETHYL-GUANIDINO)-1-P-TOLYLCARBAMOYL-BUTYL]-CARBAMIC ACID 9H-FLUOREN-9-YLMETHYL ESTER], the IC50 was > 50 µM.
In the case of `CSCCC(NC(=O)OCC1c2ccccc2-c2ccccc21)C(=O)Nc1ccc(C)cc1` (stereo not drawn) [Compound 112], the IC50 is > 50 µM.
Consider `Cc1ccc(NC(=O)C(CCCNC(N)=O)NC(=O)OCC2c3ccccc3-c3ccccc32)cc1` [Compound 113, (S)-(1-P-TOLYLCARBAMOYL-4-UREIDO-BUTYL)-CARBAMIC ACID 9H-FLUOREN-9-YLMETHYL ESTER], for which the IC50 was > 50 µM.
Take `Cc1ccc(NC(=O)[C@@H](N)CCCCN)cc1` [Compound 114, (S)-2,6-DIAMINO-HEXANOIC ACID P-TOLYLAMIDE]: the 50% inhibitory concentration (IC50) was > 50 µM.
Then `Cc1ccc(NC(=O)C(CNC(=O)CN)NC(=O)OCC2c3ccccc3-c3ccccc32)cc1` [Compound 115, (S)-[2-(2-AMINO-ACETYLAMINO)-1-P-TOLYLCARBAMOYL-ETHYL]-CARBAMIC ACID 9H-FLUOREN-9-YLMETHYL ESTER], with 10 to 50 µM.
For `NCCCCC[C@H](NC(=O)OCC1c2ccccc2-c2ccccc21)C(=O)Nc1ccc(C2CCCCC2)cc1` [Compound 116, (S)-[6-AMINO-1-(4-CYCLOHEXYL-PHENYLCARBAMOYL)-HEXYL]-CARBAMIC ACID 9H-FLUOREN-9-YLMETHYL ESTER] the value was < 10 µM.
For `Cc1ccc(NC(=O)[C@H](CCCCN)NC(=O)Nc2cccc(Br)c2)cc1` [Compound 118, (S)-6-AMINO-2-[3-(3-BROMO-PHENYL)-UREIDO]-HEXANOIC ACID P-TOLYLAMIDE] the value was > 50 µM; for `Cc1ccc(NC(=O)C2CCCCN2C(=O)OCC2c3ccccc3-c3ccccc32)cc1` [Compound 122, (S)-2-P-TOLYLCARBAMOYL-PIPERIDINE-1-CARBOXYLIC ACID 9H-FLUOREN-9-YLMETHYL ESTER], > 50 µM; for `Cc1ccc(NC(=O)C2CCCCN2C(=O)OCC2c3ccccc3-c3ccccc32)cc1` [Compound 123, (R)-2-P-TOLYLCARBAMOYL-PIPERIDINE-1-CARBOXYLIC ACID 9H-FLUOREN-9-YLMETHYL ESTER], > 50 µM.
Consider `Cc1ccc(NC(=O)C(CCCCN(C)C)NC(=O)OCC2c3ccccc3-c3ccccc32)cc1` [Compound 124, (S)-(5-DIMETHYLAMINO-1-P-TOLYLCARBAMOYL-PENTYL)-CARBAMIC ACID 9H-FLUOREN-9-YLMETHYL ESTER], for which the IC50 was > 50 µM.
Then `Cc1ccc(NC(=O)[C@H](CCCCN)NC(=O)NC2c3ccccc3-c3ccccc32)cc1` [Compound 126, (S)-6-AMINO-2-[3-(9H-FLUOREN-9-YL)-UREIDO]-HEXANOIC ACID P-TOLYLAMIDE], with < 10 µM.
Regarding `NCCCC[C@@H](NC(=O)OCC1c2ccccc2-c2ccccc21)C(=O)Nc1ccc(C2CCCCC2)cc1` [Compound 128, (R)-[5-AMINO-1-(4-CYCLOHEXYL-PHENYLCARBAMOYL)-PENTYL]-CARBAMIC ACID 9H-FLUOREN-9-YLMETHYL ESTER], the IC50 was < 10 µM.
For the compound `Cc1ccc(NC(=O)C(Cc2ccc(CN)cc2)NC(=O)OCC2c3ccccc3-c3ccccc32)cc1` [Compound 129, (S)-[2-(4-AMINOMETHYL-PHENYL)-1-P-TOLYLCARBAMOYL-ETHYL]-CARBAMIC ACID 9H-FLUOREN-9-YLMETHYL ESTER], the IC50 was < 10 µM.
For `Cc1ccc(NC(=O)C2CC(OC(=O)CCN)CN2C(=O)OCC2c3ccccc3-c3ccccc32)cc1` [Compound 130, (S)-(4-(R)-(3-AMINO-PROPIONYLOXY)-2-P-TOLYLCARBAMOYL-PYRROLIDINE-1-CARBOXYLIC ACID 9H-FLUOREN-9-YLMETHYL ESTER)] the value was > 50 µM; for `Cc1ccc(NC(=O)C2CC(OC(=O)CN)CN2C(=O)OCC2c3ccccc3-c3ccccc32)cc1` [Compound 131, (S)-[4-(R)-(2-AMINO-ACETOXY)-2-P-TOLYLCARBAMOYL-PYRROLIDINE-1-CARBOXYLIC ACID 9H-FLUOREN-9-YLMETHYL ESTER]], > 50 µM; for `Cc1ccc(NC(=O)C(CCCCN)NC(=O)NCc2ccccc2)cc1` [Compound 133, (S)-6-AMINO-2-(3-BENZYL-UREIDO)-HEXANOIC ACID P-TOLYLAMIDE], > 50 µM.
For `Cc1ccc(NC(=O)C(CCCCN)NC(=O)NCCc2ccccc2)cc1` [Compound 134, (S)-6-AMINO-2-(3-PHENETHYL-UREIDO)-HEXANOIC ACID P-TOLYLAMIDE] the value was > 50 µM; for `Cc1ccc(NC(=O)NC(CCCCN)C(=O)Nc2ccc(C)cc2)cc1` [Compound 135, (S)-6-AMINO-2-(3-P-TOLYL-UREIDO)-HEXANOIC ACID P-TOLYLAMIDE], > 50 µM.
Then `Cc1ccc(CNC(=O)NC(CCCCN)C(=O)Nc2ccc(C)cc2)cc1` [Compound 136, (S)-6-AMINO-2-[3-(4-METHYL-BENZYL)-UREIDO]-HEXANOIC ACID P-TOLYLAMIDE], with > 50 µM.
`Cc1ccc(NC(=O)C2(NC(=O)OCC3c4ccccc4-c4ccccc43)CCNCC2)cc1` [Compound 138, (4-P-TOLYLCARBAMOYL-PIPERIDIN-4-YL)-CARBAMIC ACID 9H-FLUOREN-9-YLMETHYL ESTER]: the IC50 was > 50 µM.
As for `COc1ccc(CNC(=O)N[C@@H](CCCCN)C(=O)Nc2ccc(C)cc2)cc1` [Compound 139, (S)-6-AMINO-2-[3-(4-METHOXY-BENZYL)-UREIDO]-HEXANOIC ACID P-TOLYLAMIDE], the IC50 was > 50 µM.
In the case of `Cc1ccc(NC(=O)[C@H](CCCCN)NC(=O)NCc2ccc(Cl)c(Cl)c2)cc1` [Compound 140, (S)-6-AMINO-2-[3-(3,4-DICHLORO-BENZYL)-UREIDO]-HEXANOIC ACID P-TOLYLAMIDE], the IC50 lay within 10 to 50 µM.
As to `NCCCC[C@@H](NC(=O)NCc1ccccc1)C(=O)Nc1ccc(C2CCCCC2)cc1` [Compound 141, (R)-6-AMINO-2-(3-BENZYL-UREIDO)-HEXANOIC ACID (4-CYCLOHEXYL-PHENYL)-AMIDE], the IC50 is < 10 µM.
As for `NCCCC[C@H](NC(=O)OCC1c2ccccc2-c2ccccc21)C(=O)Nc1ccc(-c2ccccc2)cc1` [Compound 143, (S)-[5-AMINO-1-(BIPHENYL-4-YLCARBAMOYL)-PENTYL]-CARBAMIC ACID 9H-FLUOREN-9-YLMETHYL ESTER], the IC50 is < 10 µM.
